Type in all cases: physicochemical
The nature of data set [1]: Reduction potential of model compounds. The following applies: pH 7 Buffer solution versus Normal Hydrogen Electrode (NHE). On the procedure:
The redox potential of the solution is measured by open cell potential. […] Cyclic voltammetry can be used to identify the various oxidation states and redox potentials for future manipulation of redox state. Additionally, FIG. 5 in the present application provides a working example of this assay by depicting the cyclic voltammetry trace for hypericin. As shown, there are multiple peaks in the range of 0-2 volts, that are the result of the different redox states of hypericin. This is manipulated according to the preferred or desired redox state to be achieved.
Once the redox potential of the preparation is measured, the redox state may be adjusted to the preferred or desired condition at any stage as previously described.
The multiple oxidation states of the molecule of interest can be determined electrochemically by cyclic voltammetry. The first phase involves applying an excessive positive potential (oxidizing potential) and oxidizing all the species present to one form. Then the applied voltage is stepped down in increments while monitoring current. When the mid-point redox potential of a reaction is approached, molecules begin to be reduced, causing current through the circuit. After returning all molecules to the reduced form, the voltage is increased and the redox potentials of the reaction(s) are recorded. […]

Data set [2] is described as follows: Electrochemical oxidation of EGCG solutions at pH 6.0, followed by UV-visible absorbance and open circuit potential. The text has this:
An electrochemical cell was fabricated using a fine porosity glass frit in 1″ diameter glass tubing. The electrochemical cell houses the counter electrode and keeps the Ag/AgCl reference electrode and platinum working electrode separate from the counter electrode. This addition to the system allowed the preparation of bulk solution. The working electrode and reference electrode compartment was continuously stirred using a small stir bar and a magnetic stirrer to minimize gradient effects at the working electrode.
The EGCG solutions were oxidized using a positive potential to a visual end point. UV-visible spectral data were collected during these experiments, including the absorbance at 270 nm and 320 nm, corresponding to the phenol and quinone forms of EGCG, respectively. In addition, the open cell potential was recorded as experiments progressed. The active redox potentials and experimental endpoints were determined based on current and visual color changes.
Due to solution evaporation over time, the ratio of absorbance at 320 nm divided by the absorbance at 270 nm was determined in order to account for overall absorption increases. […] In addition, the visual change in solution color from clear to yellow and pink was also monitored as an indicator of degree of oxidation.
Stirred EGCG solutions in 0.1 M phosphate buffer with 0.1 M KCl at pH 6.0 were monitored. […]

A short description of data set [3]: Stability of electrochemically oxidized EGCG solutions after pH modification (UV-visible spectra). The text has this:
Solutions were pH modified following electrochemical oxidation to observe stability. […] These samples were open to air, and no other precautions were taken to prevent oxidation by atmospheric oxygen.

Consider 3 molecules from patent publication US20090023804A1, “ELECTROCHEMICAL METHODS FOR REDOX CONTROL TO PRESERVE, STABILIZE AND ACTIVATE COMPOUNDS” (priority 2006, published 2009).

In the case of `O=C(O)/C=C/c1ccc(O)c(O)c1` [Caffeic Acid], in data set [1], the “Reduction Potential” value is 120 mV.
With `O=C(O[C@@H]1Cc2c(O)cc(O)cc2O[C@@H]1c1cc(O)c(O)c(O)c1)c1cc(O)c(O)c(O)c1` [Epigallocatechin gallate, epigallocatechin gallate], the “change in absorbance at 270 and 320 nm” value in data set [2] (after seven hours, 800 mV solution and control solution) is on record as “no change”. The “stability of electrochemically-induced changes (320 nm absorbance over time)” value in data set [2] (solutions left with no current after 68 h, until 120 h) is recorded as “stable for over two days”. In data set [3] (EGCG solution pH 6.26, 1500 mV for 11.4 hours, then pH 8.43, open to air, after 7 days), the “stability of pH-modified sample after electrochemical oxidation” value was “relatively stable after 7 days”. In data set [3] (EGCG solution pH 6.26, 1500 mV for 11.4 hours, then pH modified, open to air, after one day), the “stability of pH-modified samples after electrochemical oxidation” value was “stable after one day”. Further, the “oxidation of control samples” value in data set [3] (control samples at pH 6.26, no potential) is reported as “did not oxidize”.
Consider `O=c1c(O)c(-c2ccc(O)c(O)c2)oc2cc(O)cc(O)c12` [Quercitin], for which the “Reduction Potential” value in data set [1] came out at 120 mV.
